According to patent publication US11739083B2, “Disposable sensor chip with reagent including 2-substituted benzothiazolyl-3-substituted phenyl-5-substituted sulfonated phenyl-2H-tetrazolium salt” (TERUMO KABUSHIKI KAISHA, priority 2016, dated 2023):
In brackets after ≈: the same amount, converted by molar mass.

Legend:
[1] = Maximum absorption wavelength (λmax) of formazan-nickel chelate by spectrophotometer; type: physicochemical; conditions: chelate of formazan and nickel ion, aqueous MOPS, cell length 10 mm, n=1
Procedure: 10 mM aqueous solution of MOPS was added to each of the formazan compounds so as to obtain a final concentration of […], and thereby 100 μL of a sample was produced. At this time, all of the samples were red-brown in color. Apart from this, a 1 M aqueous solution of nickel ion was produced.
For mixed solutions of various compounds in an aqueous solution of formazan and an aqueous solution of nickel, the spectra were measured with a spectrophotometer (measurement cell length: 10 mm) (n=1). Based on each of the spectra, the maximum absorption wavelength (λmax) (nm) of each of the compounds in formazan was determined. From FIG. 1, it is understood that the maximum absorption wavelength (λmax) of the chelate compound of formazan compound 1 and nickel ion is 630 nm.
The absorbance at the maximum absorption wavelength is denoted as 100%.

[2] = Evaluation of water-solubility (visual check for precipitate); type: physicochemical; conditions: RO water and 0.5 M MOPS pH 7.2, 200, 100, 20 mM, stirred 5 minutes; for solubility at 5 min: RO water / 0.5 M MOPS solution (1:1), aqueous buffer, thermodynamic from solid
Procedure: After the mixture was stirred for 5 minutes, a precipitate was checked by visual inspection. […] After the mixture was stirred for 5 minutes, a precipitate was checked by visual inspection. […] After the mixture was stirred for 5 minutes, a precipitate was checked by visual inspection.

[3] = Evaluation of sensitivity (colour development with glucose, GDH-FAD, m-PMS, nickel; gradient versus WST-4); conditions: for Sensitivity, comparison with Comparative Example 5 (rating) / Sensitivity, comparison with Comparative Example 5 (ratio): gradientsample/gradientWST-4; for Sensitivity, comparison with Comparative Example 5 (rating): absorbance at λmax versus glucose concentration, cell length 50 μm
Procedure: Separately, 100 μL of RO water was added to 7 mg of a glucose dehydrogenase that uses flavin adenine dinucleotide (FAD) as a coenzyme (GDH-FAD) (manufactured by TOYOBO CO., LTD., product No.: GLD-351), the enzyme was dissolved, and thus a GDH solution was produced. Furthermore, 200 μL of RO water was added to 3.5 mg of 1-methoxy-5-methylphenazium methyl sulfate (m-PMS) (manufactured by DOJINDO LABORATORIES), and the compound was dissolved therein. Thus, an s-PMS solution was produced. 1 mL of RO water was added to 129 mg of nickel chloride to dissolve the salt, and thus a nickel solution was produced.
40 μL of the reaction solution was added to 10 μL each of an aqueous glucose solution at a concentration of 125 mg/dL, an aqueous glucose solution at a concentration of 250 mg/dL, and an aqueous glucose solution at a concentration of 1,000 mg/dL, and the mixtures were allowed to develop color. The spectra were measured with a spectrophotometer (measurement cell length: 50 μm) (n=1). […] Thus, the gradient (gradientsample) was determined.
40 μL of the control reaction solution was added to 10 μL each of an aqueous glucose solution at a concentration of 125 mg/dL, an aqueous glucose solution at a concentration of 250 mg/dL, and an aqueous glucose solution at a concentration of 1,000 mg/dL, and the mixtures were allowed to develop color. The spectra were measured with a spectrophotometer (measurement cell length: 50 μm) (n=1). For each of the spectra, the absorbance at 650 nm, which is the measurement wavelength (λmax) of WST-4, was measured, and the glucose concentration in the colored solution and the absorbance were plotted on the horizontal axis and the vertical axis, respectively. Thus, the gradient (gradientWST-4) was determined.
FIG. 2 is a graph showing the relationship between the glucose concentration and the absorbance of produced formazan in relation to the tetrazolium compound 1 and WST-4. […] Meanwhile, the gradient serves as an index for the color development intensity of each compound. Therefore, when the value obtained by dividing the gradientsample by the gradientWST-4 (gradientsample/gradientWST-4) is greater than one-fold, it is implied that the intensity of color development on the longer wavelength side is higher compared to WST-4, which is a well-known indicator reagent.

[4] = Evaluation of stability (absorbance increase of measurement solution over 6 hours); conditions: FIG. 3; absorbance increase per hour over 6 hours
Procedure: To 0.02 mmol of each compound, 75 μL of RO water and 100 μL of a 0.5 M MOPS solution (pH 7.2) were added, and the compound was dissolved therein. The solution was used as a sample.
To 175 μL of this sample, 10 μL of the GDH solution, 5 μL of the m-PMS solution, and 10 μL of the nickel solution, all of which had been produced in the same manner as in the above section (Evaluation of sensitivity), were added, and thereby a measurement solution was produced.
As a control, 85 μL of RO water and 100 μL of a 0.5 M MOPS solution (pH 7.2) were added to 11.6 mg of 2-benzothiazolyl-3-(4-carboxy-2-methoxyphenyl)-5-[4-(2-sulfoethylcarbamoyl)phenyl]-2H-tetrazolium (WST-4), and the compound was dissolved. Thus, a control sample was produced. […] Thus, a control reaction solution was produced.
At the time of production of the measurement solution (0 hour), and after 1 hour, 2 hours, and 6 hours from the production, the spectra of the measurement solutions produced as described above were measured using a spectrophotometer (measurement cell length: 50 μm) (n=1). For each spectrum, the absorbance at the maximum absorption wavelength (λmax) of each compound as determined above was measured. The absorbances measured at the time of production of the measurement solution (0 hour) and after 6 hours from the production were designated as Abs0 h and Abs6 h, respectively. […]

Row | Maximum absorption wavelength (λmax) [1] | solubility at 5 min [2] [mM] | [(Abs6 h−Abs0 h)/6] value [4] | Compound | Sensitivity, comparison with Comparative Example 5 (rating) [3] | Sensitivity, comparison with Comparative Example 5 (ratio) [3] [times] | Water-solubility [2] | gradient (absorbance versus glucose concentration) ([3]; FIG. 2, compound 1 at its λmax with nickel, WST-4 at 650 nm without nickel)
1 | 620 nm | > 200 | – | COc1ccc2nc(-n3nc(-c4ccc(S(=O)(=O)O)cc4S(=O)(=O)[O-])n[n+]3-c3ccc(C(=O)O)cc3OC)sc2c1 [Example 10] | ◯ (the value of the ratio gradientsample/gradientWST-4 was 1.5 or greater and less than 2) | – | – | –
2 | 610 nm | > 200 | – | COc1ccc(S(=O)(=O)O)cc1-[n+]1nc(-c2ccc(S(=O)(=O)O)cc2S(=O)(=O)[O-])nn1-c1nc2cc3c(cc2s1)OCCO3 [Example 14] | ⊙ (gradientsample/gradientWST-4) was 2 or greater) | 2.4 | – | –
3 | 630 nm | 100 to 200 | – | COc1ccc2nc(-n3nc(-c4ccc(O)cc4S(=O)(=O)[O-])n[n+]3-c3cc(S(=O)(=O)[O-])ccc3OC)sc2c1.[Na+] [Example 5] | ◯ (the value of the ratio gradientsample/gradientWST-4 was 1.5 or greater and less than 2) | – | – | –
4 | 645 nm | 100 to 200 | – | COc1ccc2nc(-n3nc(-c4ccccc4S(=O)(=O)[O-])n[n+]3-c3ccc(S(=O)(=O)[O-])cc3)sc2c1.[Na+] [Example 7] | ⊙ (gradientsample/gradientWST-4) was 2 or greater) | – | – | –
5 | 650 nm | 20 to 100 | – | COc1ccc2nc(-n3nc(-c4ccc(S(=O)(=O)[O-])cc4S(=O)(=O)[O-])n[n+]3-c3ccc([N+](=O)[O-])cc3OC)sc2c1.[Na+] [Example 4] | ⊙ (gradientsample/gradientWST-4) was 2 or greater) | – | – | –
6 | 580 nm | 100 to 200 (≈ 62.6 to 125 mg/mL) | – | COc1ccc(S(=O)(=O)O)cc1-[n+]1nc(-c2ccc(S(=O)(=O)O)cc2S(=O)(=O)[O-])nn1-c1nc2ccccc2s1 [Comparative Example 1, reference compound] | Δ (the value of the ratio gradientsample/gradientWST-4 was greater than 1 and less than 1.5) | – | – | –
7 | 625 nm | > 200 | – | COc1ccc(S(=O)(=O)O)cc1-[n+]1nc(-c2ccc(S(=O)(=O)O)cc2S(=O)(=O)[O-])nn1-c1nc2cc3c(cc2s1)OCO3 [Example 13] | ⊙ (gradientsample/gradientWST-4) was 2 or greater) | 2.4 | – | –
8 | No chelation | – | about 0.01 | 2-benzothiazolyl-3-(4-carboxy-2-methoxyphenyl)-5-[4-(2-sulfoethylcarbamoyl)phenyl]-2H-tetrazolium [Comparative Example 5, reference compound] | – | 1 | ◯ (a precipitate was seen in the 200 mM aqueous solution, but there was no precipitate in the 100 mM aqueous solution) | 0.0026
9 | 620 nm | > 200 | – | COc1ccc2nc(-n3nc(-c4cc(S(=O)(=O)[O-])cc(S(=O)(=O)O)c4)n[n+]3-c3cc(S(=O)(=O)O)ccc3OC)sc2c1 [Example 8] | ◯ (the value of the ratio gradientsample/gradientWST-4 was 1.5 or greater and less than 2) | – | – | –
10 | 650 nm | 20 to 100 | – | COc1ccc2nc(-n3nc(-c4ccc(O)c(S(=O)(=O)[O-])c4)n[n+]3-c3cc(S(=O)(=O)[O-])ccc3OC)sc2c1.[Na+] [Example 6] | ⊙ (gradientsample/gradientWST-4) was 2 or greater) | – | – | –
11 | 580 nm | 100 to 200 (≈ 54.6 to 109 mg/mL) | – | COc1ccccc1-[n+]1nc(-c2ccc(S(=O)(=O)O)cc2S(=O)(=O)[O-])nn1-c1nc2ccccc2s1 [compound 4, reference compound] | ⊙ (gradientsample/gradientWST-4) was 2 or greater) | – | – | –
12 | 630 nm | > 200 | – | COc1ccc2nc(-n3nc(-c4ccc(S(=O)(=O)O)cc4S(=O)(=O)O)n[n+]3-c3cc(S(=O)(=O)[O-])c([N+](=O)[O-])cc3OC)sc2c1 [Example 3] | ◯ (the value of the ratio gradientsample/gradientWST-4 was 1.5 or greater and less than 2) | – | – | –
13 | 650 nm | > 200 | – | COc1ccc(-[n+]2nc(-c3ccc(S(=O)(=O)O)cc3S(=O)(=O)O)nn2-c2nc3cc4c(cc3s2)OCO4)cc1S(=O)(=O)[O-] [Example 17] | ⊙ (gradientsample/gradientWST-4) was 2 or greater) | 2.4 | – | –
14 | 600 nm | > 200 | – | COc1ccc2nc(-n3nc(-c4ccc(S(=O)(=O)O)cc4S(=O)(=O)[O-])n[n+]3-c3cc(S(=O)(=O)O)ccc3OC)sc2c1 [Example 2] | ⊙ (gradientsample/gradientWST-4) was 2 or greater) | – | – | –
15 | 640 nm | > 200 | – | COc1ccc(-[n+]2nc(-c3ccc(S(=O)(=O)O)cc3S(=O)(=O)O)nn2-c2nc3cc4c(cc3s2)OCCO4)cc1S(=O)(=O)[O-] [Example 19] | ⊙ (gradientsample/gradientWST-4) was 2 or greater) | 2.4 | – | –
16 | 630 nm | > 200 | – | CCOc1ccc2nc(-n3nc(-c4ccc(S(=O)(=O)O)cc4S(=O)(=O)O)n[n+]3-c3ccc(OC)c(S(=O)(=O)[O-])c3)sc2c1 [Example 20] | ⊙ (gradientsample/gradientWST-4) was 2 or greater) | 2.4 | – | –
17 | 630 nm | > 200 | – | COc1ccc2nc(-n3nc(-c4ccc(S(=O)(=O)O)cc4S(=O)(=O)[O-])n[n+]3-c3ccc(OC)c(C(=O)O)c3)sc2c1 [Example 12] | ⊙ (gradientsample/gradientWST-4) was 2 or greater) | 2.4 | – | –
18 | 640 nm | > 200 | – | COc1ccc2nc(-n3nc(-c4cc(S(=O)(=O)O)cc(S(=O)(=O)O)c4)n[n+]3-c3ccc(OC)c(S(=O)(=O)[O-])c3)sc2c1 [Example 9] | ◯ (the value of the ratio gradientsample/gradientWST-4 was 1.5 or greater and less than 2) | – | – | –
19 | 605 nm | > 200 | – | COc1ccc2nc(-n3nc(-c4cc(S(=O)(=O)[O-])cc(S(=O)(=O)O)c4)n[n+]3-c3cc(C(=O)O)ccc3OC)sc2c1 [Example 11] | ◯ (the value of the ratio gradientsample/gradientWST-4 was 1.5 or greater and less than 2) | – | – | –
